For this test, the target named is muscarinic acetylcholine receptors. The experiment in a line: Inhibition of specific binding of 3H-Oxotremorine-M (3H-Oxo). Set-up: species or system rat (male Wistar. The settings on record: rat cortex; 3H-Oxotremorine 1.0 nM; 20 mM Hepes pH 7.4; 30 min at 25° C. The procedure: The pharmacological properties of the compounds of the present invention (Formula I) can be illustrated by determining their capability to inhibit the specific binding of ^3 H-Oxotremorine-M (^3 H-Oxo).
^3 H-Oxo labels muscarinic receptors in the CNS (with a preference for agonist domaines of the receptors). Three different sites are labelled by 3H-Oxo. These sites have affinity of 1.0, 20 and 3000 nM, respectively. Using the present experimental conditions only the high and medium affinity sites are determined. The inhibitory effects of compounds on ^3 H-Oxo binding reflects the affinity for muscarinic acetylcholine receptors.
All preparations are performed at 0°-4° C. unless otherwise indicated. Fresh cortex (0.1-1 g) from male Wistar rats (150-250 g) is homogenized for 5-10 s in 10 ml 20 mM Hepes pH: 7.4, with an Ultra-Turrax homogenizer. The homogenizer is rinsed with 10 ml of buffer and the combined suspension centrifuged for 15 min at 40,000×g. The pellet is washed three times with buffer. In each step the pellet is homogenized as before in 2×10 ml of buffer and centrifuged for 10 min at 40,000×g. The final pellet is homogenized in 20 mM Hepes pH: 7.4 (100 ml per g of original tissue) and used for binding assay. Aliquots of 0.5 ml is added 25 μl of test solution and 25 μl of ^3 H-Oxotremorine (1.0 nM, final concentration) mixed and incubated for 30 min at 25° C. Non-specific binding is determined in triplicate using Arecoline (1 μg/ml, final concentration) as the test substance. After incubation samples are added 5 ml of ice-cold buffer and poured directly onto Whatman GF/C glass fiber filters under suction and immediately washed 2 times with 5 ml of ice-cold buffer. The amount of radioactivity on the filters are determined by conventional liquid scintillation counting. Specific binding is total binding minus non-specific binding. Test substances are dissolved in 10 ml water (if necessary heated on a steam-bath for less than 5 minutes) at a concentration of 2.2 mg/ml. 25-75% inhibition of specific binding must be obtained before calculation of IC50.
The test value will be given as IC50 (the concentration (ng/ml) of the test substance which inhibits the specific binding of ^3 H-Oxo by 50%). [formula] where Co is specific binding in control assays and Cx is the specific binding in the test assay. (The calculations assume normal mass-action kinetics).

This note sets out measurements from patent US5712297A, “Piperdine compounds and their preparation and use” (Novo Nordisk A/S, priority 1989, dated 1998).

Take `COc1nsnc1C1=CCCN(C)C1.O=C(O)C(=O)O` [Compound 1, 1,2,5,6-tetrahydro-3-(4-methoxy-1,2,5-thiadiazol-3-yl)-1-methylpyridine oxalate]: the “Inhibition in vitro OXO BINDING (IC50: concentration which inhibits the specific binding of 3H-Oxo by 50%)” value amounted to 1.5 ng/mL.
The result for `CCOc1nsnc1C1=CCCN(C)C1.O=C(O)C(=O)O` [Compound 2, 3-(4-ethoxy-1,2,5-thiadiazol-3-yl)-1,2,5,6-tetrahydro-1-methylpyridine oxalate] reads 0.4 ng/mL.
Take `CCCOc1nsnc1C1=CCCN(C)C1.O=C(O)C(=O)O` [Compound 3, 1,2,5,6-tetrahydro-1-methyl-3-(4-propoxy-1,2,5-thiadiazol-3-yl)pyridine oxalate]: the “Inhibition in vitro OXO BINDING (IC50: concentration which inhibits the specific binding of 3H-Oxo by 50%)” value worked out at 0.2 ng/mL.
The same measure for `CCCCOc1nsnc1C1=CCCN(C)C1.O=C(O)C(=O)O` [Compound 4, 3-(4-butoxy-1,2,5-thiadiazol-3-yl)-1,2,5,6-tetrahydro-1-methylpyridine oxalate]: 0.5 ng/mL; for `CC(C)Oc1nsnc1C1=CCCN(C)C1` [Compound 5, 1,2,5,6-tetrahydro-3-(4-isopropoxy-1,2,5-thiadiazol-3-yl)-1-methylpyridineoxalate]: 3.5 ng/mL; for `CCCCCOc1nsnc1C1=CCCN(C)C1.O=C(O)C(=O)O` [Compound 6, 1,2,5,6-tetrahydro-1-methyl-3-(4-pentyloxy-1,2,5-thiadiazol-3-yl)pyridine oxalate]: 1.9 ng/mL.
The same measure for `CC(C)COc1nsnc1C1=CCCN(C)C1.O=C(O)C(=O)O` [Compound 7, 1,2,5,6-tetrahydro-3-(4-isobutoxy-1,2,5-thiadiazol-3-yl)-1-methylpyridine oxalate]: 1.7 ng/mL; for `CC(C)CCOc1nsnc1C1=CCCN(C)C1.O=C(O)C(=O)O` [Compound 8, 1,2,5,6-tetrahydro-3-(4-isopentyloxy-1,2,5-thiadiazol-3-yl)-1-methylpyridine oxalate]: 1.9 ng/mL.
The result for `CCCCCCOc1nsnc1C1=CCCN(C)C1` [Compound 9, 3-(4-hexyloxy-1,2,5-thiadiazol-3-yl)-1,2,5,6-tetrahydro-1-methylpyridineoxalate] reads 3.6 ng/mL; that for `CN1CCC=C(c2nsnc2OCc2ccccc2)C1.O=C(O)C(=O)O` [Compound 10, 3-(4-benzyloxy-1,2,5-thiadiazol-3-yl)-1,2,5,6-tetrahydro-1-methylpyridine oxalate], 2.3 ng/mL; that for `C=CCCOc1nsnc1C1=CCCN(C)C1.O=C(O)C(=O)O` [Compound 11, 3-(4-(3-butenyloxy)-1,2,5-thiadiazol-3-yl)-1,2,5,6-tetrahydro-1-methylpyridine oxalate], 0.9 ng/mL.
In the case of `CC#CCOc1nsnc1C1=CCCN(C)C1.O=C(O)C(=O)O` [Compound 12, 3-(4-(2-butynyloxy)-1,2,5-thiadiazol-3-yl)-1,2,5,6-tetrahydro-1-methylpyridine oxalate], the “Inhibition in vitro OXO BINDING (IC50: concentration which inhibits the specific binding of 3H-Oxo by 50%)” value came out at 0.3 ng/mL.
The same measure for `C#CCOc1nsnc1C1=CCCN(C)C1.O=C(O)C(=O)O` [Compound 13, 1,2,5,6-tetrahydro-1-methyl-3-(4-propargyloxy-1,2,5-thiadiazol-3-yl)pyridine oxalate]: 0.3 ng/mL; for `CN1CCC=C(c2nsnc2OCC2CC2)C1.O=C(O)C(=O)O` [Compound 14, 3-(4-cyclopropylmethoxy-1,2,5-thiadiazol-3-yl)-1,2,5,6-tetrahydro-1-methylpyridine oxalate]: 0.4 ng/mL.
